Assay results from the supplement of paper PMC10307832.

Tests used:
Test in all cases: relative viability (nuclei count vs DMSO), 5 days (fraction); higher = more cells survive
XMD13-2 + Bortezomib = compound: C1CC1C(=O)NC2=NNC3=C2C=CC(=C3)C4=CC(=CC=C4)C(=O)NC5CC5 [XMD13-2] + CC(C)C[C@H](NC(=O)[C@H](Cc1ccccc1)NC(=O)c1cnccn1)B(O)O [Bortezomib] (partner 0.002 µM)
Procedure, shortened: (§1)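 After 5 days of treatment, lung cancer cells in 1536-well plates were fixed and stained in a single step (final 0.05% Triton X-100, 1% formaldehyde, 1 ug/ml Hoechst) and their nuclei counted on 4× images. Treatment had been applied by pin tool the day after seeding as one drug alone or as a fixed anchor-drug dose with five library-drug doses (not always all listed) in √10 steps. Relative viability is the nuclei count of treated wells divided by that of vehicle wells, and values are medians of duplicate plates.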

Dasatinib + Trametinib = compound: Cc1nc(Nc2ncc(C(=O)Nc3c(C)cccc3Cl)s2)cc(N2CCN(CCO)CC2)n1 [Dasatinib] + CC(=O)Nc1cccc(-n2c(=O)n(C3CC3)c(=O)c3c(Nc4ccc(I)cc4F)n(C)c(=O)c(C)c32)c1 [Trametinib] (partner 0.02 µM)
Procedure, shortened: as §1

XMD13-2 + Dasatinib = compound: C1CC1C(=O)NC2=NNC3=C2C=CC(=C3)C4=CC(=CC=C4)C(=O)NC5CC5 [XMD13-2] + Cc1nc(Nc2ncc(C(=O)Nc3c(C)cccc3Cl)s2)cc(N2CCN(CCO)CC2)n1 [Dasatinib] (partner 0.075 µM)
Procedure, shortened: as §1

Dasatinib + Pemetrexed = compound: Cc1nc(Nc2ncc(C(=O)Nc3c(C)cccc3Cl)s2)cc(N2CCN(CCO)CC2)n1 [Dasatinib] + Nc1nc2[nH]cc(CCc3ccc(C(=O)N[C@@H](CCC(=O)O)C(=O)O)cc3)c2c(=O)[nH]1 [Pemetrexed] (partner 0.2 µM)
Procedure, shortened: as §1

Cell Line | relative viability (XMD13-2 + Bortezomib; first compound 0.05 µM) | relative viability (XMD13-2 + Bortezomib; first compound 0.1581 µM) | relative viability (XMD13-2 + Bortezomib; first compound 0.5 µM) | relative viability (XMD13-2 + Bortezomib; first compound 1.581 µM) | relative viability (XMD13-2 + Bortezomib; first compound 5 µM) | relative viability (Dasatinib + Trametinib; first compound 0.005 µM) | relative viability (Dasatinib + Trametinib; first compound 0.01581 µM) | relative viability (Dasatinib + Trametinib; first compound 0.05 µM) | relative viability (Dasatinib + Trametinib; first compound 0.1581 µM) | relative viability (Dasatinib + Trametinib; first compound 0.5 µM) | relative viability (XMD13-2 + Dasatinib; first compound 0.05 µM) | relative viability (XMD13-2 + Dasatinib; first compound 0.1581 µM) | relative viability (XMD13-2 + Dasatinib; first compound 0.5 µM) | relative viability (XMD13-2 + Dasatinib; first compound 1.581 µM) | relative viability (XMD13-2 + Dasatinib; first compound 5 µM) | relative viability (Dasatinib + Pemetrexed; first compound 0.005 µM) | relative viability (Dasatinib + Pemetrexed; first compound 0.01581 µM) | relative viability (Dasatinib + Pemetrexed; first compound 0.05 µM) | relative viability (Dasatinib + Pemetrexed; first compound 0.1581 µM) | relative viability (Dasatinib + Pemetrexed; first compound 0.5 µM)
COR-L 105 | 1.06 | 0.953 | 0.737 | 0.905 | 0.75 | 0.445 | 0.358 | 0.389 | 0.336 | 0.253 | 0.463 | 0.325 | 0.343 | 0.365 | 0.323 | 0.869 | 1.1 | 0.783 | 0.605 | 0.361
LCLC-97TM1 | 1.02 | 0.686 | 0.881 | 0.236 | 0.469 | 0.221 | 0.14 | 0.174 | 0.0952 | 0.0916 | 0.829 | 0.784 | 0.839 | 0.728 | 0.695 | 0.195 | 0.184 | 0.177 | 0.182 | 0.143
NCI-H520 | 0.978 | 0.802 | 0.66 | 0.329 | 0.365 | 0.614 | 0.322 | 0.298 | 0.144 | 0.205 | 0.213 | 0.261 | 0.208 | 0.231 | 0.182 | 0.51 | 0.358 | 0.285 | 0.138 | 0.138
NCI-H1993 | 1.42 | 1.08 | 1.02 | 0.972 | 1.04 | 0.418 | 0.396 | 0.532 | 0.353 | 0.525 | 0.601 | 0.44 | 0.526 | 0.519 | 0.573 | 0.591 | 0.498 | 0.616 | 0.395 | 0.385
NCI-H1437 | 0.667 | 0.551 | 0.658 | 0.527 | 0.597 | 0.55 | 0.465 | 0.433 | 0.305 | 0.25 | 0.409 | 0.442 | 0.397 | 0.352 | 0.556 | 0.351 | 0.336 | 0.287 | 0.256 | 0.203
LC-2-ad | 1.25 | 1.11 | 1.1 | 1.01 | 1.08 | 0.914 | 0.906 | 0.909 | 0.735 | 0.457 | 0.899 | 0.39 | 0.711 | 0.535 | 0.559 | 0.262 | 0.253 | 0.256 | 0.237 | 0.214
HARA | 1.31 | 1.11 | 0.671 | 1.17 | 1.17 | 0.714 | 0.31 | 0.518 | 0.189 | 0.212 | 0.353 | 0.196 | 0.279 | 0.295 | 0.298 | 0.241 | 0.234 | 0.229 | 0.202 | 0.151
NCI-H522 |  |  |  |  |  | 0.767 | 0.63 | 0.668 | 0.591 | 0.599 | 0.81 | 0.891 | 0.94 | 0.821 | 0.792 | 1.04 | 1.03 | 0.914 | 0.706 | 0.681
ABC-1 | 0.331 | 0.319 | 0.261 | 0.289 | 0.296 |  |  |  |  |  | 0.53 | 0.542 | 0.599 | 0.51 | 0.426 |  |  |  |  | 
NCI-H1563 | 0.949 | 0.908 | 0.816 | 0.764 | 0.86 |  |  |  |  |  | 0.485 | 0.435 | 0.43 | 0.436 | 0.506 | 0.684 | 0.625 | 0.487 | 0.458 | 0.4
NCI-H1703 | 0.47 | 0.597 | 0.407 | 0.228 | 0.195 |  |  |  |  |  |  |  |  |  |  |  |  |  |  | 
SK-MES-1 |  |  |  |  |  | 0.566 | 0.475 | 0.361 | 0.217 | 0.157 | 0.347 | 0.349 | 0.296 | 0.325 | 0.374 | 0.985 | 0.879 | 0.709 | 0.314 | 0.224
NCI-H1944 |  |  |  |  |  | 0.389 | 0.367 | 0.348 | 0.218 | 0.153 | 0.226 | 0.236 | 0.229 | 0.235 | 0.213 | 0.573 | 0.583 | 0.49 | 0.234 | 0.158
NCI-H2170 |  |  |  |  |  | 0.929 | 0.828 | 0.834 | 0.651 | 0.365 | 0.791 | 0.518 | 0.601 | 0.55 | 0.541 | 0.255 | 0.257 | 0.243 | 0.221 | 0.206
NCI-H727 | 0.996 | 0.936 | 0.792 | 0.982 | 1.03 | 0.355 | 0.281 | 0.322 | 0.296 | 0.25 | 0.383 | 0.344 | 0.38 | 0.478 | 0.426 |  |  |  |  | 
NCI-H1648 |  |  |  |  |  | 0.437 | 0.352 | 0.44 | 0.235 | 0.175 |  |  |  |  |  | 0.454 | 0.716 | 0.936 | 0.699 | 0.239
EBC-1 | 0.61 | 0.523 | 0.552 | 0.531 | 0.299 |  |  |  |  |  |  |  |  |  |  |  |  |  |  | 
NCI-H1395 |  |  |  |  |  | 1.12 | 0.968 | 1.03 | 0.605 | 0.327 | 0.459 | 0.428 | 0.402 | 0.394 | 0.441 | 0.987 | 1.01 | 0.603 | 0.369 | 0.368
LK-2 |  |  |  |  |  | 0.765 | 0.399 | 0.414 | 0.263 | 0.246 | 0.343 | 0.276 | 0.361 | 0.304 | 0.234 | 0.286 |  | 0.201 | 0.128 | 0.202
NCI-H1299 | 1.02 | 1.05 | 1.05 | 1.05 | 1.11 |  |  |  |  |  |  |  |  |  |  |  |  |  |  | 
NCI-H1793 |  |  |  |  |  | 0.4 | 0.353 | 0.317 | 0.357 | 0.322 | 0.457 |  | 0.41 | 0.4 | 0.429 | 0.609 | 0.503 | 0.556 | 0.424 | 0.488
IA-LM | 0.907 | 0.79 | 0.825 | 0.829 | 0.398 |  |  |  |  |  |  |  |  |  |  |  |  |  |  | 
